viability, T/C and IC50 data for six molecules are collected here from PubChem BioAssay AID2060332 (Molecular Pharmacology Branch, DTP, NCI, 2025).

For this experiment, the system named is LG0567-F671-PDC multi-cell spheroid viability. The experiment in a line: Anticancer human tumor LG0567-F671-PDC patient-derived lung adenocarcinoma cell line growth inhibition [IpAb]. As to conditions: for viability, T/C: stronger effect = lower value. The source says: Combinatorial screen of targeted agents with ipatasertib and abemaciclib in multi-cell type tumor spheroids
A high-throughput screen of multi-cell type tumor spheroids was designed to identify active combinations of targeted small molecules and ipatasertib or abemaciclib. Complex spheroids include a stromal component modeled by human endothelial cells (HUVEC) and fibroblasts modeled by human mesenchymal stem cells (MSCs). The concentration ranges selected for each drug and investigational agent were based upon clinically achievable concentrations if the clinical Cmax of the agent was known.
Compounds. The drugs and investigational agents: ipatasertib (NSC767898), abemaciclib(NSC768073), selumetinib (NSC741078), trametinib (758246), adavosertib (NSC754352), everolimus (NSC733504), sapanisertib (NSC764658), vemurafenib (NSC761431), venetoclax (NSC766270), copanlisib (NSC809693), apelisib (NSC765974), palbociblib (NSC758247), vemurafenib (NSC761431), dabrafenib (NSC764134), ravoxertinib (NSC781343), BMS-387032 (NSC767048), sotorasib (NSC818433), talazoparib (NSC767125) and afursertib (NSC778305), were obtained from the National Cancer Institute (NCI) Developmental Therapeutics Program Chemical Repository. The FDA-approved anticancer drug set is available from the NCI Developmental Therapeutics Program. […] The stock solutions were prepared in dimethyl sulfoxide (DMSO, Sigma-Aldrich, St. Louis, MO, cat. D2650) at 800-fold the tested concentration and stored at -70 degrees C prior to their use. All drugs and investigational agents were tested over a range starting from a high concentration at or near the clinical Cmax and decreasing in half-log increments. If the clinical Cmax for an agent had not been determined, the highest concentration tested was 10 microM.
NCI60 Cell Culture. NCI60 cell lines were obtained from the NCI Developmental Therapeutics Program Tumor Repository. For each lot of cells, the Repository performed Applied Biosystems AmpFLSTR Identifiler testing with PCR amplification to confirm consistency with the published Identifier STR profile for each cell line. Cells were kept in continuous culture for no more than 20 passages. The optimal seeding densities for each of the cell lines at each time point assessed were determined prior to performing the concentration response studies. Briefly, the NCI60 human tumor lines were grown as monolayers in RPMI 1640 medium supplemented with 10% FBS and 2 mmol/L L-glutamine.
An additional 9 lines were from the NCI60 cell line panel including MDA-MB-231 breast carcinoma, MDA-MB-468 breast carcinoma, MCF7 breast carcinoma, Hs578T breast carcinoma, MALME-3M melanoma, SK-MEL-2 melanoma, SK-OV-3 ovarian carcinoma, DU-145 prostate carcinoma, PC-3 prostate carcinoma, all cell lines along with major genetic alterations are listed on Table 2. Pooled donor human umbilical vein endothelial cells (HUVEC, Lonza, cat. CC-2519) and human mesenchymal stem cells (hMSC, Lonza, cat. PT-2501) were purchased from Lonza (Walkersville, MD).
PDMR cell lines were grown in complete medium (DC medium): Dulbecco's modified Eagle's medium (DMEM)/F12 supplemented with 5% fetal bovine serum (FBS), 2 mM L-glutamine, 100 U/mL penicillin and 100 µg/ml streptomycin, 0.4 µg/ml hydrocortisone, 10 ng/ml epidermal growth factor (EGF) recombinant human protein, 24 µg/mL adenine, and 0.1 mg/mL primocin. During culture from frozen stock vials, PDMR cells were cultured in the same medium containing 10 µM Y-27632 (see Table 3). The PDCs were cultured in complete DMEM/F12 media without 10 microM Y-27632 dihydrochloride for at least two passages prior to the screen. The pooled donor HUVEC and hMSC were cultured in endothelial cell growth medium 2 (PromoCell, Heidelberg, Germany, cat. C-22011) and mesenchymal stem cell growth medium 2 (PromoCell, cat. C-28009), respectively. For all experiments, HUVEC and hMSC were used at passages </=5.
[…]

Values joined by “and” are separate entries in the source; they are usually repeats but may differ in a detail not shown here. Equal entries are not always repeated.

One may read the viability, T/C as the ratio of treated to control. Usually IC50 stands for the concentration that gives 50% inhibition.
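Further: viability read after 7 days of drug exposure.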
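Wherever viability, T/C is given: 100% = DMSO vehicle control luminescence.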

Regarding `CC1(C)CCC(CN2CCN(c3ccc(C(=O)NS(=O)(=O)c4ccc(NCC5CCOCC5)c([N+](=O)[O-])c4)c(Oc4cnc5[nH]ccc5c4)c3)CC2)=C(c2ccc(Cl)cc2)C1`, the viability, T/C by setting is: (compound 0.0316 µM) 96.3% and 101%; (compound 0.1 µM) 87.4% and 110%; (compound 0.316 µM) 86.8% and 105%; (compound 1 µM) 112% and 113%; (compound 3.16 µM) 145% and 143%; (compound 10 µM) 25.2% and 23%. In addition, the IC50 (curve of compound) is 7020 nM and 7120 nM.

For `C=CCn1c(=O)c2cnc(Nc3ccc(N4CCN(C)CC4)cc3)nc2n1-c1cccc(C(C)(C)O)n1`, the viability, T/C is 101% and 104% (compound 0.0316 µM); 76.4% and 73.2% (compound 0.1 µM); 46.1% and 54.2% (compound 0.316 µM); 45.3% and 54% (compound 1 µM); 37.1% and 57.6% (compound 3.16 µM); 30.6% and 41.5% (compound 10 µM).

Regarding `CC(C)n1nc(-c2ccc3oc(N)nc3c2)c2c(N)ncnc21`, the viability, T/C reads like this: (compound 0.000316 µM) 108% and 95.6%; (compound 0.001 µM) 79.7% and 87.8%; (compound 0.00316 µM) 90.1% and 102%; (compound 0.01 µM) 64% and 55.8%; (compound 0.0316 µM) 78.1% and 50%; (compound 0.1 µM) 66.9% and 56.8%. Also, where the note is “curve of compound”, the IC50 was above 100 nM.

For `CC(C)(C)c1cnc(CSc2cnc(NC(=O)C3CCNCC3)s2)o1`, the viability, T/C is, setting by setting: (compound 0.00949 µM) 110% and 111%; (compound 0.03 µM) 113% and 95.4%; (compound 0.0949 µM) 97.6% and 73.8%; (compound 0.3 µM) 6.76% and 3.49%; (compound 0.949 µM) 2.03% and 1.44%; (compound 3 µM) 0.9% and 0.89%. Moreover, the half-maximal inhibitory concentration (IC50) (curve of compound) is 173 nM and 140 nM.

As to `CCCS(=O)(=O)Nc1ccc(F)c(C(=O)c2c[nH]c3ncc(-c4ccc(Cl)cc4)cc23)c1F`, the viability, T/C by setting is: (compound 0.0316 µM) 101% and 97.6%; (compound 0.1 µM) 117% and 154%; (compound 0.316 µM) 143% and 135%; (compound 1 µM) 138%; (compound 3.16 µM) 197% and 189%; (compound 10 µM) 215% and 179%. In addition, under “curve of compound”, the IC50 was above 10000 nM.

Consider `Cc1nc(NC(=O)N2CCCC2C(N)=O)sc1-c1ccnc(C(C)(C)C(F)(F)F)c1` (centres undefined) + CCN1CCN(Cc2ccc(Nc3ncc(F)c(-c4cc(F)c5nc(C)n(C(C)C)c5c4)n3)nc2)CC1, for which the IC50 runs as follows: (curve of first compound, second compound 0.01 µM) 1080 nM; (curve of first compound, second compound 0.0316 µM) 658 nM; (curve of first compound, second compound 0.1 µM) 387 nM; (curve of first compound, second compound 0.316 µM) 181 nM; (curve of first compound, second compound 1 µM) 481 nM. Besides, the viability, T/C was 80.2% (second compound 0.01 µM, first compound 0.0316 µM); 66.6% (second compound 0.01 µM, first compound 0.1 µM); 56% (second compound 0.01 µM, first compound 0.316 µM); 54.3% (second compound 0.01 µM, first compound 1 µM); 43.5% (second compound 0.01 µM, first compound 3.16 µM); 32.4% (second compound 0.01 µM, first compound 10 µM). The viability, T/C was 51.6% (second compound 0.0316 µM, first compound 0.0316 µM); 75.1% (second compound 0.0316 µM, first compound 0.1 µM); 57.4% (second compound 0.0316 µM, first compound 0.316 µM); 44.6% (second compound 0.0316 µM, first compound 1 µM); 41.1% (second compound 0.0316 µM, first compound 3.16 µM); 33.7% (second compound 0.0316 µM, first compound 10 µM). Moreover, the viability, T/C is 57.4% (second compound 0.1 µM, first compound 0.0316 µM); 56.8% (second compound 0.1 µM, first compound 0.1 µM); 49.2% (second compound 0.1 µM, first compound 0.316 µM); 46% (second compound 0.1 µM, first compound 1 µM); 34.6% (second compound 0.1 µM, first compound 3.16 µM); 27.5% (second compound 0.1 µM, first compound 10 µM). Also, the viability, T/C by setting is: (second compound 0.316 µM, first compound 0.0316 µM) 55.5%; (second compound 0.316 µM, first compound 0.1 µM) 48.1%; (second compound 0.316 µM, first compound 0.316 µM) 53.5%; (second compound 0.316 µM, first compound 1 µM) 41.1%; (second compound 0.316 µM, first compound 3.16 µM) 35.5%; (second compound 0.316 µM, first compound 10 µM) 29.6%. The viability, T/C was 49.5% (second compound 1 µM, first compound 0.0316 µM); 63.5% (second compound 1 µM, first compound 0.1 µM); 55.4% (second compound 1 µM, first compound 0.316 µM); 40.5% (second compound 1 µM, first compound 1 µM); 42.5% (second compound 1 µM, first compound 3.16 µM); 38.3% (second compound 1 µM, first compound 10 µM).
